Reference: patent US20220105135A1, “METHODS AND COMPOSITIONS FOR THE MODULATION OF OPIOID SIGNALING IN THE TUMOR MICROENVIRONMENT” (The Broad Institute, Inc., priority 2020, published 2022)

Experiments:
CD8+ T cells = experiment: In vitro stimulation of CD8+ T cells with MENK peptide; type: cell-based; details: for coinhibitory receptors / checkpoints expression on T cells: MENK stimulation
Source text: FIG. 55A. […] FIG. 55B. […] FIG. 55C. […] FIG. 55D.
Applicants determined the effect of PENK-OGFR signaling on tumor growth and anti-tumor immunity.

fungi = details: at 100 pg/ml; cited from earlier work
elastase = details: cited from earlier work
[1] = intraperitoneal injection of 300 mg/kg to mice; cited from earlier work
pepsin = pepsin (Homo sapiens, UniProt P0DJD8); details: cited from earlier work
trypsin = trypsin (Homo sapiens, UniProt P07477); details: cited from earlier work
chymotrypsin = chymotrypsin (Bos taurus, UniProt P00766); details: cited from earlier work
bacteria = tested on: bacteria; parameters: dose or concentration left out as unconfirmed; details: cited from earlier work
papain = target: T1, papain (Carica papaya, UniProt P00784); details: cited from earlier work
T1 sequence (P00784 134-345): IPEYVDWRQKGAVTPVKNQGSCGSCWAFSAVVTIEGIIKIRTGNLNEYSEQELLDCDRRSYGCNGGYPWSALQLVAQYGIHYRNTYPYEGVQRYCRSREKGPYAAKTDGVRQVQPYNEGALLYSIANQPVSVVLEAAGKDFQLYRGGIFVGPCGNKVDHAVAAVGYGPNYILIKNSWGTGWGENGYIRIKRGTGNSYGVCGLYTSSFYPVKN

aminopeptidase A = aminopeptidase A (Homo sapiens, UniProt Q07075); details: cited from earlier work
leucine aminopeptidase = details: cited from earlier work
thermolysin = target: T2, thermolysin (Bacillus thermoproteolyticus, UniProt P00800); details: cited from earlier work
T2 sequence (P00800 233-548): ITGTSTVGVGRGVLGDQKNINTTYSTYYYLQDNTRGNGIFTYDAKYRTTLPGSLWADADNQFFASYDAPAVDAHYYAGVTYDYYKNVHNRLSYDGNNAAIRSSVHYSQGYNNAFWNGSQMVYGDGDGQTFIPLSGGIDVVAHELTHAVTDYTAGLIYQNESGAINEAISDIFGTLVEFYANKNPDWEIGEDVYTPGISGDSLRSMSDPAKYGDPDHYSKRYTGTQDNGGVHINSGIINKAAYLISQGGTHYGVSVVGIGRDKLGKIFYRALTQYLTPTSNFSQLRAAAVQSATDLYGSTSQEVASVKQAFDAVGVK

aminopeptidase B = aminopeptidase B (Homo sapiens, UniProt Q9H4A4); details: cited from earlier work
[2] = MENK vs control, in vitro, listed as Menk

Chain of pepsin (P0DJD8 63-388): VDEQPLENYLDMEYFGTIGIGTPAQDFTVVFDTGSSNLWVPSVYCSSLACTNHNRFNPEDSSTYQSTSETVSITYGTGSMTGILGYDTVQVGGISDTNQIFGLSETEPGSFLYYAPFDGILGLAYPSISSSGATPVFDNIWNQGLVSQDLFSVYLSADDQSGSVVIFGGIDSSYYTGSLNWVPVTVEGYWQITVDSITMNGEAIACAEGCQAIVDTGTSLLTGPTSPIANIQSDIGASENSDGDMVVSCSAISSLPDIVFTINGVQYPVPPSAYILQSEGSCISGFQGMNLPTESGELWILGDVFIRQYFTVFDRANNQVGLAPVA
Chain of aminopeptidase B (Q9H4A4 whole entry, species assumed): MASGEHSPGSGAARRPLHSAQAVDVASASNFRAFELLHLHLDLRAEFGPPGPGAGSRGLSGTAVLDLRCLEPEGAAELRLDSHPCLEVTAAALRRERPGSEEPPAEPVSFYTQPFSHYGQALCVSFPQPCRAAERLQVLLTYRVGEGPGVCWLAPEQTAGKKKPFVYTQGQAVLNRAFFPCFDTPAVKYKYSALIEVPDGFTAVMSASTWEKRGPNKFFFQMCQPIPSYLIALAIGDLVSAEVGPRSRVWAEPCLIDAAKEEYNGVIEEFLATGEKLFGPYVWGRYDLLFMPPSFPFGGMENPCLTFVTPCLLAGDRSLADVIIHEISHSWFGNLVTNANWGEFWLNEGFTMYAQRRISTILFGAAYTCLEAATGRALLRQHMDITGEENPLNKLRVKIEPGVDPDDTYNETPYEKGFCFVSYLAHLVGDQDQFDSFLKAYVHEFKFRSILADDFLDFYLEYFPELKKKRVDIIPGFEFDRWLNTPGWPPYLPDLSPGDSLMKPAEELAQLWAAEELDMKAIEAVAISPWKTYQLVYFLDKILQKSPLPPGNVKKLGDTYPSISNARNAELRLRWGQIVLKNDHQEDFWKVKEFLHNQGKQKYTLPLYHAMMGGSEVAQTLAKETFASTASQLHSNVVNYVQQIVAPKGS
Chain of aminopeptidase A (Q07075 whole entry, species assumed): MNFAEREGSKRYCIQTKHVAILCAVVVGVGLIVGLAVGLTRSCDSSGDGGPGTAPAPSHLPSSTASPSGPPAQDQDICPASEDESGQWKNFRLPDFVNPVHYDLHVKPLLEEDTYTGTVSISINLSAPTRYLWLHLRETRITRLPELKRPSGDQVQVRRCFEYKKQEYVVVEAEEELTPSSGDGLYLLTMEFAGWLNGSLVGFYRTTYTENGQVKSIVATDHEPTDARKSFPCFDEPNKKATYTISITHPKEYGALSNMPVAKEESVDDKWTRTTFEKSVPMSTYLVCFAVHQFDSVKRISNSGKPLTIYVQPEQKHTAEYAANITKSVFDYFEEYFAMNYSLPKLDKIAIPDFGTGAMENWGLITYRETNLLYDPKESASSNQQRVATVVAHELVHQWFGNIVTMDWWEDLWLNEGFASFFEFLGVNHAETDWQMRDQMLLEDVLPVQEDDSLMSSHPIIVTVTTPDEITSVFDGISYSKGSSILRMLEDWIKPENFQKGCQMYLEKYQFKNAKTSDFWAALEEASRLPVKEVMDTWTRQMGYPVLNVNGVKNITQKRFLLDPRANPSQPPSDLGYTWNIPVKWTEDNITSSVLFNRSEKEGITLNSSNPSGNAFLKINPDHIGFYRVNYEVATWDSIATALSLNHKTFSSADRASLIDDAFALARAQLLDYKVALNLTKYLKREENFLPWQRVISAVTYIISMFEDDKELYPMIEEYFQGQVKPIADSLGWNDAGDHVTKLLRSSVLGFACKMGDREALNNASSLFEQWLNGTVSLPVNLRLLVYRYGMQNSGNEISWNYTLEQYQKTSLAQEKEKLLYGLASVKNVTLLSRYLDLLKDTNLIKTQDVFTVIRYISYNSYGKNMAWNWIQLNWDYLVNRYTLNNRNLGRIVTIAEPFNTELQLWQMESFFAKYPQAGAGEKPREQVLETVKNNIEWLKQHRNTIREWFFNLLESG

[Met]enkephalin (YGGFM) [MENK, enkephalin peptide produced by proteolytic cleavage of PENK]
coinhibitory receptors / checkpoints expression on T cells (CD8+ T cells): increases | coinhibitory receptors / checkpoints expression on T cells (CD8+ T cells; listed as Menk): increased expression of several checkpoints | CD160 (CD8+ T cells; MENK vs control, in vitro): increased | IL-2 (CD8+ T cells; MENK vs control, in vitro): decreased | PD1 (CD8+ T cells; MENK vs control, in vitro): increased | PD1+ TIM3+CD8+ T cells (CD8+ T cells; MENK vs control, in vitro): increased | TIM3 (CD8+ T cells; MENK vs control, in vitro): increased | proliferation (CD8+ T cells; MENK vs control, in vitro): decreased | IL-2 (CD8+ T cells; [2]): dampened | proliferation (CD8+ T cells; [2]): some reduction

CC(C)C[C@H](NC(=O)[C@@H](O)[C@H](N)Cc1ccccc1)C(=O)O [Bestatin, ubenimex (bestatin)]
antifungal activity (fungi): no antifungal | inhibition of elastase (elastase): does not show any inhibition | toxicity (death) [1]: no death | inhibition of pepsin (pepsin): does not show any inhibition | inhibition of trypsin (trypsin): does not show any inhibition | inhibition of chymotrypsin (chymotrypsin): does not show any inhibition | antibacterial activity (bacteria): no antibacterial | inhibition of papain (papain): does not show any inhibition | inhibition of aminopeptidase A (aminopeptidase A): does not show any inhibition | inhibition of leucine aminopeptidase (leucine aminopeptidase): specific inhibitor | inhibition of thermolysin (thermolysin): does not show any inhibition | inhibition of aminopeptidase B (aminopeptidase B): specific inhibitor
